# Measured values reported in paper PMC6017357, “In Vitro Inhibitory Effects of Synthetic Cannabinoid EAM-2201 on Cytochrome P450 and UDP-Glucuronosyltransferase Enzyme Activities in Human Liver Microsomes” (Molecules : A Journal of Synthetic Chemistry and Natural …, 2018).
# Legend:
# UGT1A6 = target: T1, UGT1A6 (Homo sapiens, UniProt P19224); assay: UGT1A6-catalyzed N-acetylserotonin glucuronidation in human liver microsomes; type: in vitro ADME; conditions: at 50 µM
# T1 construct: ultrapooled human liver microsomes (0.2 mg/mL), 5 mM UDPGA; from tissue; host or cells: ultrapooled human liver microsomes
# T1 sequence (P19224 27-532): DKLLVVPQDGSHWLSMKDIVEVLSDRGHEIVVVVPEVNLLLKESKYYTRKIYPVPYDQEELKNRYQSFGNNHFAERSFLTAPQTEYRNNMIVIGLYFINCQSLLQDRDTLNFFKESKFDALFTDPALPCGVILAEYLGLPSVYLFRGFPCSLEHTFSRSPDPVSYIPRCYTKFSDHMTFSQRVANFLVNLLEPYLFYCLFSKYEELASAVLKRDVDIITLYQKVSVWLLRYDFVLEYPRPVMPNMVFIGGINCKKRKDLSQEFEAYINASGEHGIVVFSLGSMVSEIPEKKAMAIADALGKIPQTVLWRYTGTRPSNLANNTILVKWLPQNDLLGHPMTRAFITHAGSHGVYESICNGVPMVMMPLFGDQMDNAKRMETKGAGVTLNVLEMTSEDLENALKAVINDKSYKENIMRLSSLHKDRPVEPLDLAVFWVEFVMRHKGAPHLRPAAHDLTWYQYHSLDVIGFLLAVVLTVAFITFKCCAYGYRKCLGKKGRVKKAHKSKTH
# Method: (§1) The inhibitory effects of EAM-2201 on UGT1A1, UGT1A3, UGT1A4, UGT1A6, UGT1A9 and UGT2B7 were evaluated using LC-MS/MS and the cocktail of UGT substrates as previously described. Each incubation mixture was prepared in a final volume of 100 µL as follows: ultrapooled human liver microsomes (0.2 mg/mL), 5 mM UDPGA, 10 mM magnesium chloride, alamethicin (25 µg/mL), 50 mM Tris buffer (pH 7.4), various concentrations of EAM-2201 in DMSO (final concentrations of 1–50 µM, 0.5% DMSO) and the UGT enzyme-specific substrates of two cocktail sets (set A: 0.5 µM SN-38, 2 µM chenodeoxycholic acid and 0.5 µM trifluoperazine; set B: 1 µM N-acetylserotonin, 0.2 µM mycophenolic acid and 1 µM naloxone, acetonitrile content, 0.5%). […] Supernatant from sets A and B (50 µL of each) was mixed and aliquots (5 µL) were analyzed by LC-MS/MS. […]
# (§2) The metabolites formed from the six UGT cocktail substrates were simultaneously measured using LC-MS/MS [41]. […] Each metabolite was quantified via SRM in the negative ion mode: chenodeoxycholic acid 24-acyl-β-glucuronide, 567.2 > 391.0; mycophenolic acid glucuronide, 495.2 > 318.9; and propofol glucuronide (IS), 353.3 > 177.1; and in the positive ion mode: SN-38 glucuronide, 569.0 > 393.0; trifluoperazine glucuronide, 584.2 > 408.1; N-acetylserotonin-β-D-glucuronide, 395.2 > 219.0; naloxone 3-β-D-glucuronide, 504.0 > 310.0; and meloxicam (IS), 352.0 > 115.1. […]
# UGT2B7 = target: T2, UGT2B7 (Homo sapiens, UniProt P16662); assay: UGT2B7-catalyzed naloxone 3-β-D-glucuronidation in human liver microsomes; type: in vitro ADME; conditions: at 50 µM
# T2 construct: ultrapooled human liver microsomes (0.2 mg/mL), 5 mM UDPGA; from tissue; host or cells: ultrapooled human liver microsomes
# T2 sequence (P16662 24-529): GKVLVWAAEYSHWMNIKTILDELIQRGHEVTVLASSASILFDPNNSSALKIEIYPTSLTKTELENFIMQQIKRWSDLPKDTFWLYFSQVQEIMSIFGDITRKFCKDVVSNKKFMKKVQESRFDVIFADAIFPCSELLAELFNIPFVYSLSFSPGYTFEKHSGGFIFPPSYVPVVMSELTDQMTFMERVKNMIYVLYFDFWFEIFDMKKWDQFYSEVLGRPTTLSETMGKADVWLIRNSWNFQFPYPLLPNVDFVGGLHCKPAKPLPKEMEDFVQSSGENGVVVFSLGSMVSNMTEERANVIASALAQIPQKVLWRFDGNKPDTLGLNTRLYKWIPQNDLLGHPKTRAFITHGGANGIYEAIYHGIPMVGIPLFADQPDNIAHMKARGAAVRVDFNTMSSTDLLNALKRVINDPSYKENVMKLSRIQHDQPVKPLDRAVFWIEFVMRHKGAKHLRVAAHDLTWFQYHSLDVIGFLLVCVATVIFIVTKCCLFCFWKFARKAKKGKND
# Method: as §1, §2
smiles,measurement,setting,value
"CCc1ccc(C(=O)c2cn(CCCCCF)c3ccccc23)c2ccccc12 [EAM-2201, (4-ethyl-1-naphthalenyl)[1-(5-fluoropentyl)-1H-indol-3-yl]-methanone]",inhibition of UGT1A6-catalyzed N-acetylserotonin glucuronidation,UGT1A6,negligibly inhibited
same,inhibition of UGT2B7-catalyzed naloxone 3-β-D-glucuronidation,UGT2B7,negligibly inhibited
